The supplement of paper PMC10307832

Key:
Experiment in all cases: relative viability (nuclei count vs DMSO), 5 days (fraction); higher = more cells survive
COR-L 105 = test system: COR-L 105
How it was run: (§1)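 Lung cancer cell lines were seeded in 1536-well plates and dosed by pin tool the next day, with either a single drug or a fixed anchor-drug dose combined with five library-drug doses (not always all listed) spaced in √10 steps. Five days later, one step fixed the cells and stained their nuclei (final 0.05% Triton X-100, 1% formaldehyde, 1 ug/ml Hoechst), and nuclei were counted on 4× images. Relative viability is the nuclei count in treated wells divided by the count in vehicle wells, and each value is the median of duplicate plates.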

SK-LU-1 = test system: SK-LU-1
How it was run: as §1

HCC-366 = test system: HCC-366
How it was run: as §1

NCI-H1944 = test system: NCI-H1944
How it was run: as §1

NCI-H1975 = test system: NCI-H1975
How it was run: as §1

HCC-78 = test system: HCC-78
How it was run: as §1

HCC-15 = test system: HCC-15
How it was run: as §1

NCI-H358 = test system: NCI-H358
How it was run: as §1

HARA = test system: HARA
How it was run: as §1

HCC-44 = test system: HCC-44
How it was run: as §1

COR-L23 = test system: COR-L23
How it was run: as §1

LCLC-103H = test system: LCLC-103H
How it was run: as §1

NCI-H2405 = test system: NCI-H2405
How it was run: as §1

NCI-H2085 = test system: NCI-H2085
How it was run: as §1

UMC-11 = test system: UMC-11
How it was run: as §1

NCI-H661 = test system: NCI-H661
How it was run: as §1

HCC-827 = test system: HCC-827
How it was run: as §1

NCI-H727 = test system: NCI-H727
How it was run: as §1

NCI-H1437 = test system: NCI-H1437
How it was run: as §1

NCI-H1395 = test system: NCI-H1395
How it was run: as §1

NCI-H2023 = test system: NCI-H2023
How it was run: as §1

EPLC-272H = test system: EPLC-272H
How it was run: as §1

Work on Cc1cnc(-c2cnc(NCCNc3ccc(C#N)cn3)nc2-c2ccc(Cl)cc2Cl)[nH]1 + O=C(CCCCCCC(=O)Nc1ccccc1)NO [Vorinostat] (partner 1 µM) yielded a relative viability (COR-L 105; first compound 0.08 µM) of 0.942, a relative viability (COR-L 105; first compound 0.253 µM) of 0.77 and a relative viability (COR-L 105; first compound 0.8 µM) of 0.596. It also gave a relative viability (COR-L 105; first compound 2.53 µM) of 0.663, a relative viability (SK-LU-1; first compound 0.08 µM) of 0.735 and a relative viability (SK-LU-1; first compound 0.253 µM) of 0.818. The relative viability (SK-LU-1; first compound 0.8 µM) was 0.849, the relative viability (SK-LU-1; first compound 2.53 µM) was 0.85 and the relative viability (HCC-366; first compound 0.08 µM) was 0.332. It also gave a relative viability (HCC-366; first compound 0.253 µM) of 0.24, a relative viability (HCC-366; first compound 0.8 µM) of 0.31 and a relative viability (HCC-366; first compound 2.53 µM) of 0.369. It also gave a relative viability (NCI-H1944; first compound 0.08 µM) of 0.591, a relative viability (NCI-H1944; first compound 0.8 µM) of 0.614 and a relative viability (NCI-H1944; first compound 2.53 µM) of 0.566. For the same compound, the relative viability (NCI-H1975; first compound 0.08 µM) was 0.783, the relative viability (NCI-H1975; first compound 0.253 µM) was 0.699 and the relative viability (NCI-H1975; first compound 0.8 µM) was 0.732. The relative viability (NCI-H1975; first compound 2.53 µM) was 0.614, the relative viability (HCC-78; first compound 0.08 µM) was 0.553 and the relative viability (HCC-78; first compound 0.253 µM) was 0.438. For the same compound, the relative viability (HCC-78; first compound 0.8 µM) was 0.39, the relative viability (HCC-78; first compound 2.53 µM) was 0.427 and the relative viability (HCC-15; first compound 0.08 µM) was 0.832. The relative viability (HCC-15; first compound 0.253 µM) was 0.818, the relative viability (HCC-15; first compound 0.8 µM) was 0.817 and the relative viability (HCC-15; first compound 2.53 µM) was 0.829. For the same compound, the relative viability (NCI-H358; first compound 0.08 µM) was 0.787, the relative viability (NCI-H358; first compound 0.253 µM) was 0.686 and the relative viability (NCI-H358; first compound 0.8 µM) was 0.69. It also gave a relative viability (NCI-H358; first compound 2.53 µM) of 0.585, a relative viability (HARA; first compound 0.08 µM) of 0.659 and a relative viability (HARA; first compound 0.253 µM) of 0.612. It also gave a relative viability (HARA; first compound 0.8 µM) of 0.487, a relative viability (HARA; first compound 2.53 µM) of 0.492 and a relative viability (HCC-44; first compound 0.08 µM) of 1.05. It also gave a relative viability (HCC-44; first compound 0.253 µM) of 1.16, a relative viability (HCC-44; first compound 0.8 µM) of 1.03 and a relative viability (HCC-44; first compound 2.53 µM) of 1.24. For the same compound, the relative viability (COR-L23; first compound 0.08 µM) was 0.556, the relative viability (COR-L23; first compound 0.253 µM) was 0.42 and the relative viability (COR-L23; first compound 0.8 µM) was 0.508. The relative viability (COR-L23; first compound 2.53 µM) was 0.505, the relative viability (LCLC-103H; first compound 0.08 µM) was 0.728 and the relative viability (LCLC-103H; first compound 0.253 µM) was 0.541. The relative viability (LCLC-103H; first compound 0.8 µM) was 0.689, the relative viability (LCLC-103H; first compound 2.53 µM) was 0.698 and the relative viability (NCI-H2405; first compound 0.08 µM) was 1.02. It also gave a relative viability (NCI-H2405; first compound 0.253 µM) of 0.985, a relative viability (NCI-H2405; first compound 0.8 µM) of 0.909 and a relative viability (NCI-H2405; first compound 2.53 µM) of 0.661. For the same compound, the relative viability (NCI-H2085; first compound 0.08 µM) was 0.886, the relative viability (NCI-H2085; first compound 0.253 µM) was 0.769 and the relative viability (NCI-H2085; first compound 0.8 µM) was 0.824. The relative viability (NCI-H2085; first compound 2.53 µM) was 0.997, the relative viability (UMC-11; first compound 0.08 µM) was 0.403 and the relative viability (UMC-11; first compound 0.253 µM) was 0.387. The relative viability (UMC-11; first compound 0.8 µM) was 0.411, the relative viability (UMC-11; first compound 2.53 µM) was 0.511 and the relative viability (NCI-H661; first compound 0.08 µM) was 0.906. For the same compound, the relative viability (NCI-H661; first compound 0.253 µM) was 0.774, the relative viability (NCI-H661; first compound 0.8 µM) was 0.782 and the relative viability (NCI-H661; first compound 2.53 µM) was 0.731. For the same compound, the relative viability (HCC-827; first compound 0.08 µM) was 0.85, the relative viability (HCC-827; first compound 0.253 µM) was 0.306 and the relative viability (HCC-827; first compound 0.8 µM) was 0.827. It also gave a relative viability (HCC-827; first compound 2.53 µM) of 0.871, a relative viability (NCI-H727; first compound 0.08 µM) of 1.18 and a relative viability (NCI-H727; first compound 0.253 µM) of 0.787. It also gave a relative viability (NCI-H727; first compound 0.8 µM) of 1.02, a relative viability (NCI-H727; first compound 2.53 µM) of 1.23 and a relative viability (NCI-H1437; first compound 0.08 µM) of 0.829. It also gave a relative viability (NCI-H1437; first compound 0.253 µM) of 0.774, a relative viability (NCI-H1437; first compound 0.8 µM) of 0.828 and a relative viability (NCI-H1437; first compound 2.53 µM) of 0.853. The relative viability (NCI-H1395; first compound 0.08 µM) was 0.847, the relative viability (NCI-H1395; first compound 0.253 µM) was 0.577 and the relative viability (NCI-H1395; first compound 0.8 µM) was 0.62. It also gave a relative viability (NCI-H1395; first compound 2.53 µM) of 0.6, a relative viability (NCI-H2023; first compound 0.08 µM) of 0.897 and a relative viability (NCI-H2023; first compound 0.253 µM) of 0.473. It also gave a relative viability (NCI-H2023; first compound 0.8 µM) of 0.465, a relative viability (NCI-H2023; first compound 2.53 µM) of 0.731 and a relative viability (EPLC-272H; first compound 0.08 µM) of 0.658. It also gave a relative viability (EPLC-272H; first compound 0.8 µM) of 0.531 and a relative viability (EPLC-272H; first compound 2.53 µM) of 0.581.
